In patent US20090010873A1, “Methods of Cell Therapy, Neurogenesis and Oligodendrogenesis” (YEDA RESEARCH AND DEVELOPMENT CO. LTD., priority 2004, published 2009):

Legend:
[1] = test system: neural progenitor cells (NPCs); assay: NPCs co-cultured with microglia pre-activated by aggregated Aβ and cytokines (β-III-tubulin); assay type: cell-based, mouse; conditions: 10 days co-culture; Aβ 5 μM, IFN-γ 10 ng/ml
Description: (xlvi) Reagents. Recombinant mouse IFN-γ and IL-4 (both containing endotoxin at a concentration below 0.1 ng/μg cytokine) were obtained from R&D Systems (Minneapolis, Minn.). β-amyloid peptides [amyloid protein fragment 1-40 and 1-42 (Aβ1-40/1-42)] were purchased from Sigma-Aldrich, St. Louis, Mo. The Aβ peptides were dissolved in endotoxin-free water, and Aβ aggregates were formed by incubation of Aβ, as described (Ishii et al., 2000).
(li) Neural progenitor cell culture. Coronal sections (2 mm thick) of tissue containing the subventricular zone of the lateral ventricle were obtained from the brains of adult C57B1/6J mice. The tissue was minced and then incubated for digestion at 37° C., 5% CO2 for 45 min in Earle's balanced salt solution containing 0.94 mg/ml papain (Worthington, Lakewood, N.J.) and 0.18 mg/ml of L-cysteine and EDTA. After centrifugation at 110×g for 15 min at room temperature, the tissue was mechanically dissociated by pipette trituration. Cells obtained from single-cell suspensions were plated (3500 cells/cm^2) in 75-cm^2 Falcon tissue-culture flasks (BD Biosciences, San Diego, Calif.), in NPC-culturing medium [Dulbecco's modified Eagles's medium (DMEM)/F12 medium (Gibco/Invitrogen, Carlsbad, Calif.) containing 2 mM L-glutamine, 0.6% glucose, 9.6 μg/ml putrescine, 6.3 ng/ml progesterone, 5.2 ng/ml sodium selenite, 0.02 mg/ml insulin, 0.1 mg/ml transferrin, 2 μg/ml heparin (all from Sigma-Aldrich, Rehovot, Israel), fibroblast growth factor-2 (human recombinant, 20 ng/ml), and epidermal growth factor (human recombinant, 20 ng/ml; both from Peprotech, Rocky Hill, N.J.)]. Spheres were passaged every 4-6 days and replated as single cells. Green fluorescent protein (GFP)-expressing NPCs were obtained as previously described (Pluchino et al., 2003).
(lii) Primary microglial culture. Brains from neonatal (P0-P1) C57B1/6J mice were stripped of their meninges and minced with scissors under a dissecting microscope (Zeiss, Stemi DV4, Germany) in Leibovitz-15 medium (Biological Industries, Kibbutz Beit Ha-Emek, Israel). […]

[2] = test system: microglia; assay: TNF-α and IGF-I expression in treated microglia (RT-PCR, Q-PCR, immunocytochemistry); assay type: cell-based, mouse
Description: (v) RNA purification, cDNA synthesis, and reverse-transcription PCR analysis. Cells were lysed with TRI reagent (MRC, Cincinnati, Ohio), and total cellular RNA was purified from lysates using the RNeasy kit (Qiagen, Hilden, Germany) according to the manufacturer's instructions. Residual genomic DNA was removed during the purification process by incubation with RNase-free DNase (Qiagen). RNA was stored in RNase-free water (Qiagen) at −80° C. RNA (1 μg) was converted to cDNA using SuperScript II ([…], Madison, Wis.), as recommended by the manufacturer. The cDNA mixture was diluted 1:5 with PCR-grade water.
We assayed the expression of specific mRNAs using semi-quantitative reverse transcription PCR(RT-PCR) with selected gene-specific primer pairs, using OLIGO v6.4 (Molecular Biology Insights, Cascade, Colo.).
The RT-PCR reactions were carried out using 1 μg of cDNA, […] of each primer, and ReadyMix PCR Master Mix (ABgene, Epsom, UK) in 30-μl reactions. PCR reactions were carried out in an Eppendorf PCR system with cycles (usually 25-30) of 95° C. for 30 s, 60° C. for 1 min, 72° C. for 1 min, and 72° C. for 5 min, and then kept at 4° C. As an internal standard for the amount of cDNA synthesized, we used β-actin mRNA. PCR products were subjected to agarose gel analysis and visualized by ethidium bromide staining. Signals were quantified using a Gel-Pro analyzer 3.1 (Media Cybernetics).
(xxiv) Real-time quantitative PCR analysis. Total cellular RNA purification and cDNA synthesis was performed as described in section (v) of Example 1 above. We assayed the expression of specific mRNAs using real-time quantitative PCR (Q-PCR) with selected gene-specific primer pairs. Q-PCR reactions were performed with a high-speed thermal cycler (LightCycler; Roche Diagnostics), and the product was detected by FastStart Master SYBR Green I (Roche Molecular Biochemicals) according to the manufacturer's instructions. The amplification cycle was 95° C. for 10 s, 60° C. for 5 s, and 72° C. for 10 s. The primers used were: […]

IFN-γ
GFP^+/βIIIT^+ cells (neurogenesis) with microglia activated by the agent [1]: dramatic
expression of IGF-I in microglia (Q-PCR) ([2]; 10 ng/ml, 24 h): no effect
expression of IGF-I in microglia (Q-PCR) ([2]; 100 ng/ml, 24 h): completely arrested
IGF-I production/expression by microglia ([2]; RT-PCR time course and immunocytochemistry, IL-4 10 ng/ml, IFN-γ 20 ng/ml, LPS 100 ng/ml): down-regulation of IGF-I
TNF-α production by microglia ([2]; RT-PCR time course, IFN-γ 20 ng/ml): transient increase
TNF-α production in microglia (Q-PCR) ([2]; high-dose IFN-γ (100 ng/ml), 24 h): induced
